Source: PubChem BioAssay (NCI)
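Interpolation was linear, between the two tested concentrations surrounding the appropriate level; five concentrations were tested over 48 hours in 96-well plates. TGI: total growth inhibition.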

Tests used:
Test in all cases: growth of human tumour cells (NCI), 48 h
[1] = test system: TK-10 renal
[2] = test system: MOLT-4 leukemia
[3] = test system: SF-268 CNS
[4] = test system: HS 578T breast
[5] = test system: HCT-15 colon
[6] = test system: OVCAR-4 ovarian
[7] = test system: SW-620 colon
[8] = test system: SK-OV-3 ovarian
[9] = test system: UO-31 renal
[10] = test system: ACHN renal
[11] = test system: DU-145 prostate
[12] = test system: HL-60(TB) leukemia
[13] = test system: OVCAR-8 ovarian
[14] = test system: KM12 colon
[15] = test system: HCC-2998 colon
[16] = test system: UACC-257 melanoma
[17] = test system: SN12C renal
[18] = test system: LOX IMVI melanoma
[19] = test system: HT29 colon
[20] = test system: PC-3 prostate
[21] = test system: HCT-116 colon
[22] = test system: SF-539 CNS
[23] = test system: MALME-3M melanoma
[24] = test system: SNB-75 CNS
[25] = test system: NCI-H522 lung
[26] = test system: BT-549 breast
[27] = test system: NCI/ADR-RES ovarian
[28] = test system: SF-295 CNS
[29] = test system: SR leukemia
[30] = test system: HOP-62 NSCLC
[31] = test system: UACC-62 melanoma
[32] = test system: OVCAR-5 ovarian
[33] = test system: NCI-H460 lung
[34] = test system: OVCAR-3 ovarian
[35] = test system: K-562 leukemia
[36] = test system: CCRF-CEM leukemia
[37] = test system: IGROV1 ovarian
[38] = test system: 786-0 renal
[39] = test system: A549 NSCLC
[40] = test system: U251 CNS
[41] = test system: EKVX NSCLC
[42] = test system: M14 melanoma
[43] = test system: CAKI-1 renal
[44] = test system: MDA-N
[45] = test system: SK-MEL-2 melanoma
[46] = test system: MDA-MB-435
[47] = test system: HOP-92 NSCLC
[48] = test system: SNB-19 CNS
[49] = test system: NCI-H23 lung
[50] = test system: SK-MEL-5 melanoma
[51] = test system: MCF7 breast
[52] = test system: A498 renal
[53] = test system: RPMI-8226 leukemia
[54] = test system: NCI-H226 lung
[55] = test system: SK-MEL-28 melanoma
[56] = test system: RXF 393 renal
[57] = test system: T-47D breast
[58] = test system: COLO 205 colon
[59] = test system: MDA-MB-231 breast

Structure (SMILES): CC(=O)N1C(C(=O)NC2CCCCC2)CSC1c1ccccc1 (configuration not stated)
- TGI [1]: > 100 µM
- TGI [2]: > 100 µM
- TGI [3]: > 100 µM
- TGI [4]: > 100 µM
- TGI [5]: > 100 µM
- TGI [6]: > 100 µM
- TGI [7]: > 100 µM
- TGI [8]: > 100 µM
- TGI [9]: > 100 µM
- TGI [10]: > 100 µM
- TGI [11]: > 100 µM
- TGI [12]: > 100 µM
- TGI [13]: > 100 µM
- TGI [14]: > 100 µM
- TGI [15]: > 100 µM
- TGI [16]: > 100 µM
- TGI [17]: > 100 µM
- TGI [18]: > 100 µM
- TGI [19]: > 100 µM
- TGI [20]: > 100 µM
- TGI [21]: > 100 µM
- TGI [22]: > 100 µM
- TGI [23]: > 100 µM
- TGI [24]: > 100 µM
- TGI [25]: > 100 µM
- TGI [26]: > 100 µM
- TGI [27]: > 100 µM
- TGI [28]: > 100 µM
- TGI [29]: > 100 µM
- TGI [30]: > 100 µM
- TGI [31]: > 100 µM
- TGI [32]: > 100 µM
- TGI [33]: > 100 µM
- TGI [34]: > 100 µM
- TGI [35]: > 100 µM
- TGI [36]: > 100 µM
- TGI [37]: > 100 µM
- TGI [38]: > 100 µM
- TGI [39]: > 100 µM
- TGI [40]: > 100 µM
- TGI [41]: > 100 µM
- TGI [42]: > 100 µM
- TGI [43]: > 100 µM
- TGI [44]: > 100 µM
- TGI [45]: > 100 µM
- TGI [46]: > 100 µM
- TGI [47]: > 100 µM
- TGI [48]: > 100 µM
- TGI [49]: > 100 µM
- TGI [50]: > 100 µM
- TGI [51]: > 100 µM
- TGI [52]: > 100 µM
- TGI [53]: > 100 µM
- TGI [54]: > 100 µM

Structure (SMILES): CC(=O)/C=C/C1=C(C)CCCC1(C)CC(C)C (configuration not stated)
- TGI [1]: > 100 µM
- TGI [2]: 41.5 µM
- TGI [3]: > 100 µM
- TGI [4]: > 100 µM
- TGI [5]: 30.9 µM
- TGI [6]: > 100 µM
- TGI [7]: 44.1 µM
- TGI [8]: > 100 µM
- TGI [9]: > 100 µM
- TGI [10]: 47.9 µM
- TGI [11]: > 100 µM
- TGI [55]: > 100 µM
- TGI [12]: 30.3 µM
- TGI [13]: > 100 µM
- TGI [14]: > 100 µM
- TGI [15]: 35.7 µM
- TGI [16]: 84 µM
- TGI [17]: 38.5 µM
- TGI [18]: 39.9 µM
- TGI [19]: 87.5 µM
- TGI [20]: > 100 µM
- TGI [21]: 77.8 µM
- TGI [22]: > 100 µM
- TGI [23]: 89.1 µM
- TGI [24]: 93 µM
- TGI [25]: 57.8 µM
- TGI [56]: 28.4 µM
- TGI [28]: > 100 µM
- TGI [29]: 36.8 µM
- TGI [30]: > 100 µM
- TGI [57]: 55.5 µM
- TGI [31]: 87.3 µM
- TGI [32]: > 100 µM
- TGI [58]: > 100 µM
- TGI [33]: > 100 µM
- TGI [34]: 83 µM
- TGI [35]: 40.8 µM
- TGI [36]: 36.6 µM
- TGI [37]: > 100 µM
- TGI [38]: 45.2 µM
- TGI [39]: > 100 µM
- TGI [40]: 86.7 µM
- TGI [41]: > 100 µM
- TGI [42]: > 100 µM
- TGI [43]: > 100 µM
- TGI [44]: > 100 µM
- TGI [45]: 43.5 µM
- TGI [46]: > 100 µM
- TGI [47]: 37.7 µM
- TGI [48]: > 100 µM
- TGI [49]: > 100 µM
- TGI [50]: 49.1 µM
- TGI [51]: 66.9 µM
- TGI [52]: > 100 µM
- TGI [59]: > 100 µM
- TGI [53]: 36 µM
- TGI [54]: > 100 µM

Structure (SMILES): CC1(C)OC1COc1c2occc2cc2ccc(=O)oc12 (configuration not stated)
- TGI [2]: > 100 µM
- TGI [3]: > 100 µM
- TGI [4]: > 100 µM
- TGI [5]: > 100 µM
- TGI [6]: > 100 µM
- TGI [7]: > 100 µM
- TGI [9]: > 100 µM
- TGI [10]: > 100 µM
- TGI [11]: > 100 µM
- TGI [55]: > 100 µM
- TGI [12]: > 100 µM
- TGI [13]: > 100 µM
- TGI [14]: > 100 µM
- TGI [15]: > 100 µM
- TGI [16]: > 100 µM
- TGI [17]: > 100 µM
- TGI [18]: > 100 µM
- TGI [19]: > 100 µM
- TGI [20]: > 100 µM
- TGI [21]: > 100 µM
- TGI [22]: > 100 µM
- TGI [23]: > 100 µM
- TGI [24]: > 100 µM
- TGI [25]: > 100 µM
- TGI [26]: > 100 µM
- TGI [27]: > 100 µM
- TGI [56]: > 100 µM
- TGI [28]: > 100 µM
- TGI [30]: > 100 µM
- TGI [57]: > 100 µM
- TGI [31]: > 100 µM
- TGI [32]: > 100 µM
- TGI [58]: > 100 µM
- TGI [33]: > 100 µM
- TGI [34]: > 100 µM
- TGI [35]: > 100 µM
- TGI [36]: > 100 µM
- TGI [37]: > 100 µM
- TGI [38]: > 100 µM
- TGI [39]: > 100 µM
- TGI [40]: > 100 µM
- TGI [41]: > 100 µM
- TGI [42]: > 100 µM
- TGI [43]: > 100 µM
- TGI [44]: > 100 µM
- TGI [45]: > 100 µM
- TGI [46]: > 100 µM
- TGI [47]: > 100 µM
- TGI [48]: > 100 µM
- TGI [49]: > 100 µM
- TGI [50]: > 100 µM
- TGI [51]: > 100 µM
- TGI [52]: > 100 µM
- TGI [59]: > 100 µM
- TGI [53]: > 100 µM
- TGI [54]: > 100 µM

Structure (SMILES): Cc1cc(Nc2ccc(S(=O)(=O)O)c3cc(S(=O)(=O)O)cc(S(=O)(=O)O)c23)c2ccccc2n1
- TGI [1]: > 100 µM
- TGI [2]: > 100 µM
- TGI [3]: > 100 µM
- TGI [4]: > 100 µM
- TGI [5]: > 100 µM
- TGI [6]: > 100 µM
- TGI [7]: > 100 µM
- TGI [8]: > 100 µM
- TGI [9]: > 100 µM
- TGI [10]: > 100 µM
- TGI [11]: > 100 µM
- TGI [55]: > 100 µM
- TGI [12]: > 100 µM
- TGI [13]: > 100 µM
- TGI [14]: > 100 µM
- TGI [15]: > 100 µM
- TGI [16]: > 100 µM
- TGI [17]: > 100 µM
- TGI [18]: > 100 µM
- TGI [19]: > 100 µM
- TGI [20]: > 100 µM
- TGI [21]: > 100 µM
- TGI [22]: > 100 µM
- TGI [23]: > 100 µM
- TGI [24]: > 100 µM
- TGI [25]: > 100 µM
- TGI [26]: > 100 µM
- TGI [27]: > 100 µM
- TGI [56]: > 100 µM
- TGI [28]: > 100 µM
- TGI [30]: > 100 µM
- TGI [57]: > 100 µM
- TGI [31]: > 100 µM
- TGI [32]: > 100 µM
- TGI [58]: > 100 µM
- TGI [33]: > 100 µM
- TGI [34]: > 100 µM
- TGI [37]: > 100 µM
- TGI [38]: > 100 µM
- TGI [39]: > 100 µM
- TGI [40]: > 100 µM
- TGI [41]: > 100 µM
- TGI [42]: > 100 µM
- TGI [43]: > 100 µM
- TGI [44]: > 100 µM
- TGI [45]: > 100 µM
- TGI [46]: > 100 µM
- TGI [48]: > 100 µM
- TGI [49]: > 100 µM
- TGI [50]: > 100 µM
- TGI [51]: > 100 µM
- TGI [52]: > 100 µM
- TGI [59]: > 100 µM
- TGI [53]: > 100 µM
- TGI [54]: > 100 µM
